Experimental data: ChEMBL document CHEMBL5036306 (J Med Chem, 2021)
The source made the active and inactive calls. The rule behind the calls is not given here.

Key:
[1] = Antioxidant activity of compound assessed as trolox equivalent of AAPH radical scavenging activity at 2 to 4 uM preincubated for 15 mins followed by AAPH addition and measured every 2 mins for 90 mins by ORAC-fluorescein assay; assay type: functional; details: dose 2-4 µM, time 105.0 min
[2] = Antioxidant activity assessed as DPPH radical scavenging activity incubated for 30 mins under dark condition by microplate reader based assay; assay type: functional
[3] = biological target: T1, Histone deacetylase 3 (Homo sapiens, UniProt O15379); test: Inhibition of recombinant HDAC3 (unknown origin) at 1 uM using Boc-Lys(Ac)-AMC as substrate preincubated for 1 hr followed by substrate addition and measured after 2 hrs by fluorescence based assay relative to control; details: time 3.0 hrs
T1 sequence (O15379 whole entry): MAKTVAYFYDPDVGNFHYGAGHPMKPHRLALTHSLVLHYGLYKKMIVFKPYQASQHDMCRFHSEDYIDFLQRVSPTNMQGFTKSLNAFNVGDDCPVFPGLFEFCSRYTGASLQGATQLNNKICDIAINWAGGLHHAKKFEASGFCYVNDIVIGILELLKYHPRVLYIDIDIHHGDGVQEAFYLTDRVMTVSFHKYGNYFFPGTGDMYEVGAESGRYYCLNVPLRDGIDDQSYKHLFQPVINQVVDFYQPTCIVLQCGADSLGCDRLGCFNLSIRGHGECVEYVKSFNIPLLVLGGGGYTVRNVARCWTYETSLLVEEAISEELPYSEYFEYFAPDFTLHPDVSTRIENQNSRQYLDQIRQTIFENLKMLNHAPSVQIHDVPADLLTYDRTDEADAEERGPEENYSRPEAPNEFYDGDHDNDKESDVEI

[4] = biological target: T2, Protein deacetylase HDAC6 (Homo sapiens) (UniProt Q9UBN7); test: Inhibition of recombinant HDAC6 (unknown origin) at 1 uM using Boc-Lys(Ac)-AMC as substrate preincubated for 1 hr followed by substrate addition and measured after 2 hrs by fluorescence based assay; details: time 3.0 hrs
T2 sequence (whole entry): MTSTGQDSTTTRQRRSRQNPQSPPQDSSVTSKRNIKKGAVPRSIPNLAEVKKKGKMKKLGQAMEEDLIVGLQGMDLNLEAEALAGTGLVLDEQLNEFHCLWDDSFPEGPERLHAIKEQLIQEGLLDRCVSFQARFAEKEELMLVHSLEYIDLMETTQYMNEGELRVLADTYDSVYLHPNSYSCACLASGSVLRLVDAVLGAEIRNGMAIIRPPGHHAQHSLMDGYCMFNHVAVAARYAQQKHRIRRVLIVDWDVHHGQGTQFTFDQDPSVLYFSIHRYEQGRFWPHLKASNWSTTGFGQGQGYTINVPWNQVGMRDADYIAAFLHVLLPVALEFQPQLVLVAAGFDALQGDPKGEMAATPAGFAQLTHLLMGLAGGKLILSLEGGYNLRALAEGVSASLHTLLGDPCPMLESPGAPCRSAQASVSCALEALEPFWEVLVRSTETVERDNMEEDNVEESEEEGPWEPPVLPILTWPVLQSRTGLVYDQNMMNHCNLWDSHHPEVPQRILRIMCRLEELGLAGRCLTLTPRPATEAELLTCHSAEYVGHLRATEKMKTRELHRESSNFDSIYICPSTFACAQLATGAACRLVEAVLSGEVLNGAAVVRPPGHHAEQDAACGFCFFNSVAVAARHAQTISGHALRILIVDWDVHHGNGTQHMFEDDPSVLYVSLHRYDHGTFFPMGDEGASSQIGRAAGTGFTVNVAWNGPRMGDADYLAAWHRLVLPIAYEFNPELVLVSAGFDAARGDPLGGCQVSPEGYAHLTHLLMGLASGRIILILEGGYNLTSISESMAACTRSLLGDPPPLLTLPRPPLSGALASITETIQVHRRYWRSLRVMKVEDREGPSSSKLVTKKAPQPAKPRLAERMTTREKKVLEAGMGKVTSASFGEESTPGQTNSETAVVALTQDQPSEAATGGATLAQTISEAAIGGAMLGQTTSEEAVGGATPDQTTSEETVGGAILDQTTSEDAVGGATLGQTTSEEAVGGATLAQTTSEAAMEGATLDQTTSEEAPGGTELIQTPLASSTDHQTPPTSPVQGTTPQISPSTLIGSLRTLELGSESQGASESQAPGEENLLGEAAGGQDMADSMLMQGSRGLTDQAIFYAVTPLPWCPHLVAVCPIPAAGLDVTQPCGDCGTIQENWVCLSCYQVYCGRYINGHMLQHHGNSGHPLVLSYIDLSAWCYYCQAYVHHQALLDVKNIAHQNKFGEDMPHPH

[5] = system: Mus musculus; test: Anti-alzheimer activity against amyloid beta (25 to 35) induced working memory deficit mouse assessed as step-through latency time to enter dark compartment at 1 mg/kg, ip administered for 7 days and measured on day 9 days by passive avoidance test; assay type: functional, organism-based; details: time 9.0 day
[6] = system: Mus musculus; test: (§1) Anti-alzheimer activity against amyloid beta (25 to 35) induced working memory deficit mouse assessed as increase in spontaneous alternation performance by measuring total number of arm entries at 0.16 mg/kg, ip administered for 7 days and measured on day 8 by Y-maze test; assay type: functional, organism-based; details: time 8.0 day
[7] = biological target: T1, Histone deacetylase 3; test: Inhibition of recombinant HDAC3 (unknown origin) using Boc-Lys(acetyl)-AMC as substrate preincubated for 1 hr followed by substrate addition and measured after 2 hrs by fluorescence based assay
[8] = organism: Homo sapiens; test: Selectivity ratio of IC50 for recombinant HDAC3 (unknown origin) to IC50 for recombinant HDAC6 (unknown origin)
[9] = biological target: T3, Protein deacetylase HDAC6 (Homo sapiens, UniProt Q9UBN7); test: Inhibition of recombinant HDAC6 (unknown origin) using Boc-Lys(acetyl)-AMC as substrate preincubated for 1 hr followed by substrate addition and measured after 2 hrs by fluorescence based assay
T3 sequence (Q9UBN7 whole entry): T2 sequence (whole entry)

[10] = Metal chelating activity assessed as compound-Cu2+ complex formation at 10 to 200 uM incubated for 2 mins followed by pyrocatechol violet addition and further incubated for 10 mins by microplate reader based assay; details: dose 10-200 µM, time 12.0 min
[11] = Neurotoxicity in mouse HT-22 cells assessed as cell survival at 10 uM incubated for 48 hrs by MTT assay; assay type: cell-based; details: for viability at 48 h, 10 µM: HT-22 cells, read-out: Activity
[12] = system: Mus musculus; test: as §1, with “0.3” for “0.16”, “8 in presence of melatonin and ferulic acid” for “8”; assay type: functional, organism-based; details: time 8.0 day
[13] = system: Mus musculus; test: Anti-alzheimer activity against amyloid beta (25 to 35) induced working memory deficit mouse assessed as step-through latency time to enter dark compartment at 1 mg/kg, ip administered for 7 days and measured on day 9 days in presence of melatonin and ferulic acid by passive avoidance test; assay type: functional, organism-based; details: time 7.0 day
[14] = system: Mus musculus; test: Cognitive enhancing effect in mouse model of Alzheimer's disease at 1 mg/kg; assay type: functional, organism-based
[15] = Toxicity in mouse model of Alzheimer's disease assessed as drug tolerability at 0.3 to 3 mg/kg, ip measured after 7 days; assay type: organism-based; details: in vivo, 168 h, dose 0.3-3 mg/kg, time 7 day
[16] = system: Mus musculus; test: Anti-alzheimer activity against amyloid beta (25 to 35) induced working memory deficit in mouse assessed as increase in spontaneous alternation performance at 1 mg/kg, ip administered for 7 days and measured on day 8 by Y-maze test; assay type: functional, organism-based; details: time 7.0 day
[17] = Metal chelating activity assessed as Fe2+ -ferrozoine complex formation at 10 to 200 uM preincubated for 2 mins followed by ferrozine addition and further incubated for 10 mins by microplate reader based assay; details: dose 10-200 µM, time 12.0 min
[18] = system: Mus musculus; test: Neuroprotection against mouse model of Alzheimer's disease at 1 mg/kg; assay type: functional, organism-based
[19] = system: Mus musculus; test: Anti-alzheimer activity against amyloid beta (25 to 35) induced working memory deficit mouse assessed as step-through latency time to enter dark compartment at 0.3 to 3 mg/kg, ip administered for 7 days and measured on day 9 days by passive avoidance test; assay type: functional, organism-based; details: dose 0.3-3 mg/kg, time 9.0 day
[20] = Metal chelating activity compound-Zn2+ complex formation at 10 to 200 uM preincubated for 2 mins followed by di-thizone addition by microplate reader based assay; details: dose 10-200 µM
[21] = system: HT-22; test: Neuroprotection against iodoacetic acid-induced ATP depletion in mouse HT-22 cells assessed as cell viability at 50 uM; assay type: functional, cell-based
[22] = system: HT-22; test: Neuroprotection against glutamate-induced oxytosis in mouse HT-22 cells assessed as cell viability at 50 uM; assay type: functional, cell-based

EC50 [2]	IC50 [7]	Ratio IC50 [8]	IC50 [9]	SMILES	ORAC antioxidant capacity (Trolox equivalents) [1]	also measured
8.9 µM	0.811 µM	2	0.353 µM	COc1ccc2[nH]cc(CCN(CCCCCC(=O)NO)C(=O)/C=C/c3ccc(O)c(OC)c3)c2c1	2.8	–
31.4 µM	0.182 µM	3	0.0688 µM	COc1ccc2c(c1)c(CCNC(C)=O)cn2Cc1ccc(/C=C/C(=O)NO)cc1	1.4	–
8.5 µM	0.163 µM	6	0.0256 µM	COc1ccc2[nH]cc(CCN(Cc3ccc(/C=C/C(=O)NO)cc3)C(=O)/C=C/c3ccc(O)c(OC)c3)c2c1	1	Activity [21]: Active; Activity [22]: Active
17.1 µM	0.0051 µM	< 1	0.0214 µM	COc1ccc2[nH]cc(CCNCc3ccc(/C=C/C(=O)NO)cc3)c2c1	2.4	viability at 48 h, 10 µM [11]: 50%
19.1 µM	0.121 µM	2	0.057 µM	COc1ccc2[nH]cc(CCNC(=O)CN(CCCCCC(=O)NO)C(=O)/C=C/c3ccc(O)c(OC)c3)c2c1	3.2	–
15.2 µM	–	–	–	COc1ccc2[nH]cc(CCNC(=O)CN(Cc3ccc(C(=O)NO)cc3)C(=O)/C=C/c3ccc(O)c(OC)c3)c2c1	1.6	inhibition [4]: 19%
8.3 µM	0.108 µM	2	0.0532 µM	COc1ccc2[nH]cc(CCNC(=O)CN(Cc3ccc(/C=C/C(=O)NO)cc3)C(=O)/C=C/c3ccc(O)c(OC)c3)c2c1	1.2	–
25.2 µM	0.0036 µM	< 1	0.0191 µM	COc1ccc2[nH]cc(CCNC(=O)c3ccc(/C=C/C(=O)NO)cc3)c2c1	2	viability at 48 h, 10 µM [11]: 60%
65 µM	0.0197 µM	< 1	0.0337 µM	COc1ccc2[nH]cc(CCNC(=O)/C=C/c3ccc(C(=O)NO)cc3)c2c1	2	–

Second part, the compound before the results:

SMILES	EC50 [2]	IC50 [7]	Ratio IC50 [8]	IC50 [9]	ORAC antioxidant capacity (Trolox equivalents) [1]	also measured
COc1cc(/C=C/C(=O)O)ccc1O [FERULATE]	13.7 µM	–	–	–	3.1	–
COc1ccc2[nH]cc(CCNC(=O)c3ccc(C(=O)NO)cc3)c2c1	62 µM	–	–	–	2.4	inhibition [3]: 87%; inhibition [4]: 88%
COc1ccc2[nH]cc(CCNC(C)=O)c2c1 [MELATONIN]	> 6000 µM	–	–	–	2	Activity [5]: inactive; Activity [6]: inactive
COc1ccc2c(c1)c(CCNC(C)=O)cn2CCCCCC(=O)NO	262 µM	0.494 µM	9	0.0523 µM	1.6	–
COc1ccc2[nH]cc(CCNCc3ccc(C(=O)NO)cc3)c2c1	66.7 µM	–	–	–	3	inhibition [3]: 26%; inhibition [4]: 43%
O=C(CCCCCCNC(=O)c1cnc(N(c2ccccc2)c2ccccc2)nc1)NO [RICOLINOSTAT]	255 µM	–	–	–	0.5	Activity [10]: Active; Activity ([11]; ht-22, 48 h, 10 µM): Toxic; Activity [12]: inactive; Activity [13]: inactive; Activity [14]: Active; Activity [15]: Non-Toxic; Activity [16]: Active; Activity [17]: Active; Activity [18]: Active; Activity [19]: Active; Activity [20]: Active
COc1ccc2[nH]cc(CCNC(=O)CCCCC(=O)NO)c2c1	292 µM	–	–	–	3	inhibition [3]: 25%
